The values that follow come from patent publication US20220304943A1, “FLOWABLE CANNABINOID COMPOSITIONS HAVING HIGH EFFECTIVE CONCENTRATIONS” (Canopy Growth Corporation, priority 2019, published 2022).

The nature of this data set: Saturation concentration of CBDA and CBD. Type of data set: physicochemical. The source says: A cannabinoid composition comprising a 2:1 mixture of cannabidiolic acid (CBDA) and cannabidiol (CBD) and only minor amounts of other products provides a non-limiting illustration of how a cannabinoid incipient can be utilized to increase the in actio concentration of a target cannabinoid without increasing the in situ concentration of the target cannabinoid above its saturation concentration. […] In other words, under at least some vape-device related conditions, CBD solutions comprising greater than about 50 wt. % CBD may suffer from reduced flowability within a vape device. As such, high effective CBD concentrations appear untenable based on conventional strategies. However, the experimental results set out herein also indicate that: (i) the saturation concentration of CBDA under similar circumstances is considerably higher than that of CBD; (ii) CBDA can be converted to CBD under the conditions associated with cannabinoid vapourization (e.g. the formation of a cannabinoid-based vapour or aerosol); and (iii) including CBDA in an in situ composition can increase the saturation concentration of CBD. Accordingly, as evidenced by the results set out in the present disclosure, CBDA can be utilized as an incipient—it can increase the in actio concentration of CBD without increasing the in situ concentration of CBD above its saturation concentration. […] In this respect, the present disclosure provides access to flowable cannabinoid compositions having high effective concentrations.
FIG. 1 illustrates this with a schematic phase diagram 100 for a cannabinoid composition in accordance with the present disclosure that comprises CBDA and CBD. […] In FIG. 1, the saturation concentration of CBDA and CBD are identified with reference numbers 102 and 104, respectively, and they delineate a “potentially flowable zone” 106 from a “non-flowable zone” 108. […] This is indicated schematically in FIG. 1 with arrow 110. […]

Setting [1] is: ethanol solutions under standard temperature and pressure conditions, CBD derived from an isolate.

Each structure is given as a SMILES string.

With `C=C(C)[C@@H]1CCC(C)=C[C@H]1c1c(O)cc(CCCCC)cc1O` [CBD, cannabidiol], the saturation concentration entry under setting [1] is “about 50 wt. %” and the saturation concentration result (under at least some vape-device related conditions) is given as “about 50 wt. %”.

Regarding `C=C(C)[C@@H]1CCC(C)=C[C@H]1c1c(O)cc(CCCCC)c(C(=O)O)c1O` [CBDA, cannabidiolic acid], the saturation concentration result under setting [1] was “about 70 wt. %”.
